In patent US20160031909A1, “PORPHYRAZINE OPTICAL AND DUAL OPTICAL/ MR CONTRAST AND THERAPEUTIC AGENTS” (HOFFMAN/BARRETT, LLC, priority 2013, published 2016):
Entries after “also recorded” stand apart in the source; their conditions may differ.

Experiments:
MDA-MB-231 cells = test: In vitro cellular uptake, Gd(III) content by ICP-MS; format: cell-based; details: MDA-MB-231, 24 hours, compared with equivalent DOTA-Gd(III)
Protocol: Breast tumor cells (MDA-MB-231) were treated with M-Pz-Gd(III) complexes at varying concentrations for 24 hours, washed, digested in acid, and Gd(III) content was measured by ICP-M S (FIG. 1). An M-Pz-Gd(III) dose of 50 μM corresponds to an overall Gd(III) dose of 100 μM because two Gd(III) ions are present per molecule. Cells also were treated with an equivalent amount of DOTA-Gd(III), an agent known not to cross cell membranes.
After cell harvesting, an aliquot of the cell suspensions was mixed with Guava ViaCount reagent and allowed to stain at room temperature for at least 5.0 minutes (no longer than 20 minutes). Stained samples were vortexed for 10 seconds and counted. Percent cell viability was determined via manual analysis using a Guava EasyCyte Mini Personal Cell Analyzer (PCA) and ViaCount software module. For each sample, 1000 events were acquired with dilution factors that were determined based upon optimum machine performance (about 25-70 cells/μL).
Quantification of Gd was accomplished using ICP-MS of acid digested samples. Solution samples were digested in ACS reagent grade nitric acid (70%, Sigma, St. Louis, Mo., USA) and incubated in a water bath at 70° C. for at least 2 hours to allow for complete sample digestion. […]

[1] = tested on: MDA-MB-231 orthotopic breast tumor; test: In vivo tumor MRI in orthotopic breast tumor model; set-up: species or system athymic nude mice
Protocol: Cu-Pz-Gd(III) was examined as a contrast agent in vivo in an orthotopic breast tumor model in athymic nude mice. MDA-MB-231 breast tumor cells expressing mCherry fluorescent protein were implanted in the mammary fat pad of mice and tumors were allowed to grow to about 5 mm in diameter at which time mice were treated with 450 nmol (50 mg/kg) Cu-Pz-Gd(III) together with saline treated control mice (FIG. 3A).
In a separate experiment focusing only on short time points (0-225 min), groups of mice (n=3) were treated with Cu-Pz-Gd(III) (450 nmol, 50 mg/kg), DOTA-Gd(I I I) (900 nmol, 25 mg/kg), and saline as a negative control (FIG. 4). Mice were imaged continuously after tail vein injections. […] Regions of interest (ROIs) were defined outside the periphery of tumors, at the inner rim, and at the center.
MDA-MB-231 cells (1×10^6) expressing mCherry fluorescent protein were inoculated subcutaneously (1:1 v/v matrigel:PBS) on the right mammary fat pad. Cells were maintained in DMEM media supplemented with 10% FBS prior to inoculation. The athymic nude mice, Crl:NU(NCr)-Foxnl^nm, were purchased from Charles River, Portage at 5-6 weeks old and 16-18 gram were allowed to acclimate for 5 days. One week post inoculation, each animal was screened for mCherry fluorescence wavelength using the IVIS small animal fluorescence imaging system to verify presence of the tumor.
Mice were anesthetized in an induction chamber with 3% inhaled isoflurane in oxygen, then transferred to an imaging bed with circulating warm water heating system, MRI compatible respiratory monitoring (SA Instruments, Stony Brook, N.Y.) and 1-2% isoflurane delivered via nosecone to maintain a surgical plane of anesthesia with respiratory rate at 90-100 breaths/min Mice were imaged prone with the tumor centered in a 40 mm diameter quadrature volume coil (Bruker Biospec, Billerica, Mass.). An AutoPac automated positioning system was used to reproducibly center the animals in the MRI system.
Mice were positioned in the MRI scanner as described above and localizer images were acquired. T1 maps were acquired using a FAIR-RARE non-selective inversion recovery sequence with static TR (18,000 ms) and TE (6.1 ms), and variable TI (30.5, 100, 200, 300, 500, 600, 700, 800, 900, 1000, 1100, 1200, 1300, 1400, 1600, 2000, 2500, 3000, 3500, 4000, 4500, 5000, and 6000 ms). Imaging parameters were as follows: field of view (FOV)=40×20 mm^2, matrix size(MTX)=512×133 pixels, number of slices=1, slice thickness=1.0 mm, and 1 average (total scan time=5 m 26 s).
Images were acquired at baseline, and 4, 24, and 48 hours after injection of 150 μL of imaging agent via the tail vein. One control animal was injected with saline; the remaining 9 animals were injected with 450 nmol Cu-Pz-Gd(III). Three animals were sacrificed after 4 hour, 24 hour, and 48 hour timepoints, respectively; the organs were collected for ICP-MS (described below) to measure biodistribution.
Mice were positioned in the MRI scanner as described above and localizer images were acquired. To improve signal to noise ratio, reduce respiratory artifacts, and increase tumor coverage, for this study we used a multi slice T1 map acquired using a variable repetition time saturation recovery sequence (RARE-VTR) with static TE (8.2 ms) and variable TR (175, 300, 600, 800, 1200, 2000, 4000 ms). Imaging parameters were as follows: FOV=10×7.5 mm, MTX=80×60, number of axial slices=5, slice thickness=1.0 mm, and 1 average (total scan time=6 min 48 sec). […]

Cu[Pz(C19H28N8O7Gd)2]. Pz=18,21-bis(2-(1H-1,2,3-triazole-4-yl) ethoxy)-tris-[1,4-dioxino[g,l,q](2R,3R)-2,3-dimethoxy-2,3-dimethyll 25H,27H-benzo[b]porphyrazine; C19H28N8O7Gd=N-methyl-2-aminoacetamide-4,7,10-tris(carboxymethyl)-1,4,7,10-tetraazacyclododecylgadolinium(III)) [Cu-Pz-Gd(III)]
Cellular uptake, Gd(III) content per cell (MDA-MB-231 cells): two-fold increase
tumor T1 over time ([1]; 0-225 min after tail vein injection, Cu-Pz-Gd(III) 450 nmol (50 mg/kg), DOTA-Gd(III) 900 nmol (25 mg/kg)): persistent; also recorded: becomes progressively shorter; also recorded: steady accumulation of Cu-Pz-Gd(III) in tumor tissue with greater accumulation in the necrotic core; also recorded: decrease in T1 is much more persistent
MR contrast enhancement of tumors ([1]; 450 nmol (50 mg/kg), 4 hour timepoint): significant contrast enhancement
time at which T1 of tumor center is roughly equivalent to the rim ([1]; 450 nmol, 50 mg/kg): 135 min
average T1 of tumor regions ([1]; 50 mg/kg, relative to saline treated controls): decreased relative to saline-treated controls; also recorded: decreased relative to saline treated controls
